According to patent publication EP0414913A1, “p-AMINOPHENOL DERIVATIVE AND PRODUCTION AND APPLICATION THEREOF” (OTSUKA PHARMACEUTICAL FACTORY, INC., priority 1989, dated 1990):

Each compound was assayed on male Wistar rats (assay: Antiinflammatory activity by air pouch technique (croton oil)). Conditions: Rattus norvegicus, 192 h, 25 mg/kg/day into the pouch in 5% gum arabic, once a day for 6 days, amount of exudate on day 8 vs control group, ** p<0.01, * p<0.05, read-out: Antiinflammatory rate (%).
Assay type: in vivo
Experimental: The antiinflammatory activity of the compound of the invention was determined by an air pouch technique generally comforming to the method described in the literature [Proc. Soc. Exp. Biol. Med., 82 , 328-333, 1953].
The test was carried out using male Wistar rats (average body weight 200 g, 7 animals per group). A thick paper sheet with an oval cutout (2 x 5 cm) was attached to the clipped back of the animal under pentobarbital anesthesia. The skin was picked up through the central cutout and 10 ml of air was injected subcutaneously to prepare an air pouch. Then, 1 ml of 2% croton oil, as a phlogogenic agent, was injected into the pouch. The paper sheet was removed and the animal was gently rotated in order that the croton oil would be thoroughly contacted with the inner wall of the pouch.
The test compound suspended in 5% gum arabic was administered into the pouch (25 mg/kg/day) once a day for 6 days beginning the day after preparation of the pouch. The group of animals subjected to the above treatment was designated as the experimental group.
On day 8, the animals were bled to death and the amount (ml) of exudate in the pouch was measured. The antiinflammatory rate was calculated with the result in the control group ( a group not receiving the test compound) as a reference according to the following equation. [formula]

Compared with `CC(C)(C)c1cc(Nc2cnccn2)cc(C(C)(C)CO)c1O` [Compound 1, 2-(1,1-dimethylethyl)-6-(1,1-dimethyl-2-hydroxyethyl)-4-pyrazinylaminophenol], `CC(C)(C)c1cc(Nc2nccnn2)cc(C(C)(C)CO)c1O` [Compound 11] is lower in inhibition in vivo at 25 mg/kg/day: 68% for the first, 20% for the second.

First: CC(=O)OCC(C)(C)c1cc(Nc2nccs2)cc(C(C)(C)C)c1O [Compound 13, 2-(2-acetoxy-1,1-dimethylethyl)-6-(1,1-dimethylethyl)-4-(2-thiazolylamino)phenol]
Second: CC(C)(C)c1cc(Nc2nccs2)cc(C(C)(C)CO)c1O [Compound 3, 2-(1,1-Dimethylethyl)-6-(1,1-dimethyl-2-hydroxyethyl)-4-[N-(2-thiazolyl)amino]phenol]
The inhibition in vivo at 25 mg/kg/day of the first is lower: 60% for the first, 71% for the second.

Going from `CC(C)(C)c1cc(Nc2nc(CC(=O)O)cs2)cc(C(C)(C)CO)c1O` [Compound 15, 2-[3-(1,1-dimethylethyl)-5-(1,1-dimethyl-2-hydroxyethyl)-4-hydroxyphenylamino]-4-thiazolylacetic acid] to `CC(C)(C)c1cc(Nc2cccnc2)cc(C(C)(C)CO)c1O` [Compound 8], the inhibition in vivo at 25 mg/kg/day falls from 32% to 19%.

Going from `CC(C)(C)c1cc(Nc2ncccn2)cc(C(C)(C)CO)c1O` [Compound 10] to `CC(C)(C)c1cc(Nc2ccccc2)cc(C(C)(C)CO)c1O` [Compound 6], the inhibition in vivo at 25 mg/kg/day falls from 24% to 14%.

Work on `CC(=O)OCC(C)(C)c1cc(N(C(C)=O)c2nccs2)cc(C(C)(C)C)c1O` [Compound 14, 2-(2-acetoxy-1,1-dimethylethyl)-6-(1,1-dimethylethyl)-4-[N-acetyl-N-(2-thiazolyl)amino]phenol] yielded an inhibition in vivo at 25 mg/kg/day of 51%.
